Results from patent publication US20210346357A1 (priority 2020, published 2021).

How the values were obtained:
Abl1 = Abl1 (Homo sapiens, UniProt P00519); test: Biochemical ABL1 kinase assay (33P-ATP); conditions: read-out: inhibition in the Abl1 assay
Abl2 = Abl2 (Homo sapiens, UniProt P42684); test: biochemical; conditions: read-out: inhibition in the Abl2 assay
Sequence of Abl2 (P42684 whole entry): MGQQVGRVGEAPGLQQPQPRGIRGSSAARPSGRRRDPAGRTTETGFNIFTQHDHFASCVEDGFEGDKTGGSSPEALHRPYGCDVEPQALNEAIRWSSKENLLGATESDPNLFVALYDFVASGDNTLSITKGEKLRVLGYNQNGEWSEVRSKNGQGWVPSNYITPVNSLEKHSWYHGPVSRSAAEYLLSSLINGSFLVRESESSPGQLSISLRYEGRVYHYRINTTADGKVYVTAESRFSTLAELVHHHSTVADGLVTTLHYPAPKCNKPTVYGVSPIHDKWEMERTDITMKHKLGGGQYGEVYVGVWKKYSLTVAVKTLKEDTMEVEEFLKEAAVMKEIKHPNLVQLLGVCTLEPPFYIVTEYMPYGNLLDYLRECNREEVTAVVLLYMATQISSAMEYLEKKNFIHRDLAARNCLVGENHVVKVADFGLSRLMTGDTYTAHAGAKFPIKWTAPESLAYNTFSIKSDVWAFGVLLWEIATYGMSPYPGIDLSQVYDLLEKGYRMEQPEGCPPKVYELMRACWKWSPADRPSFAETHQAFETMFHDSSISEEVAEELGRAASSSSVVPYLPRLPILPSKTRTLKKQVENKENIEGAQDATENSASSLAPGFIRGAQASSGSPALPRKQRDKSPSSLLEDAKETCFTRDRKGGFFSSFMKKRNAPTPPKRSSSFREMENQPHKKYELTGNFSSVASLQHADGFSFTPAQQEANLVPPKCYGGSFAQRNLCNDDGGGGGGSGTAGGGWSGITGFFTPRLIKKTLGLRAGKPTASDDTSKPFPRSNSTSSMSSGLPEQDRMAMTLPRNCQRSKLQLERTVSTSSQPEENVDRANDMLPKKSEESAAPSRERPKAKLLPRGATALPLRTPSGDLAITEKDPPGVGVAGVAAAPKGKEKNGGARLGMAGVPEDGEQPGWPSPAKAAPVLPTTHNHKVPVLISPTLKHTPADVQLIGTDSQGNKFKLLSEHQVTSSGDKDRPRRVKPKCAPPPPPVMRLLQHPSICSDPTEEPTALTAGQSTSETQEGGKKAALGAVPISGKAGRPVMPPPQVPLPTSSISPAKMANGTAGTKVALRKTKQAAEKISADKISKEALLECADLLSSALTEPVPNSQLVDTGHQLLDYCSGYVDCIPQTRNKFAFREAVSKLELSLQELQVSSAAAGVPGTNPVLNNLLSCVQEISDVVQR

Sequence of Abl1 (P00519 whole entry): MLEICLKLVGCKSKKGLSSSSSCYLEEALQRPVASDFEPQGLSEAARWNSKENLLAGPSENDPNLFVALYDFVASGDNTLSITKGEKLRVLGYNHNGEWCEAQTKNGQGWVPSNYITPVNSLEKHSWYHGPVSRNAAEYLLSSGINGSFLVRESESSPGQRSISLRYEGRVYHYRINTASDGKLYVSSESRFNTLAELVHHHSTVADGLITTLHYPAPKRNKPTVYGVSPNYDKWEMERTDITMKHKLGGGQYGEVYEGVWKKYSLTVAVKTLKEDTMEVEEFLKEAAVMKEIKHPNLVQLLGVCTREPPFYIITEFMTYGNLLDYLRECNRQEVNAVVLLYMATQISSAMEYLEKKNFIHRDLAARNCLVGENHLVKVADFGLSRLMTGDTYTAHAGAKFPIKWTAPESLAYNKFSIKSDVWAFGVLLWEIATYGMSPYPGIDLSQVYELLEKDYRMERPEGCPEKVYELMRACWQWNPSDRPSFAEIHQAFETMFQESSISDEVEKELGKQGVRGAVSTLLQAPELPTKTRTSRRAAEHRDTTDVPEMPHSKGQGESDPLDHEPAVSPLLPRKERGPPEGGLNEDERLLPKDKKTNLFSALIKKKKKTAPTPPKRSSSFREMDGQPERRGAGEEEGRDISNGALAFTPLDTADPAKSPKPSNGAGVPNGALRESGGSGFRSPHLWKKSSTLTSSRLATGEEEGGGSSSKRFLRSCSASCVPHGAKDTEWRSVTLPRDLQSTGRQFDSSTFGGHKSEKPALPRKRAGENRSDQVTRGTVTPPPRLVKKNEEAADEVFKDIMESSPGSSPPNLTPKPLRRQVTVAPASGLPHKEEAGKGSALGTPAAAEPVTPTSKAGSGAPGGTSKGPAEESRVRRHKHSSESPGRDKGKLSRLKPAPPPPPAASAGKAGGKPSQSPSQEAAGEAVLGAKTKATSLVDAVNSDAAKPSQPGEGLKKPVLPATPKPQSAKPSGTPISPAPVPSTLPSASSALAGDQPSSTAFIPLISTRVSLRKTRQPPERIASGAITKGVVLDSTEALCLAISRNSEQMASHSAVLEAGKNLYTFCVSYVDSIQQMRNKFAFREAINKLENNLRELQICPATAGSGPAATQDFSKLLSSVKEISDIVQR

**Q.** How did the inhibition at 10 µM (Abl1) turn out when `CCS(=O)(=O)N1CC(CC#N)(n2cc(-c3ncnc4[nH]ccc34)cn2)C1` [baricitinib, reference compound] was run?
**A.** The inhibition at 10 µM was 80%.

**Q.** What about the inhibition at 10 µM (Abl2) of the same compound?
**A.** The inhibition at 10 µM was 35%.
